Data taken from PubChem BioAssay (NCI).
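A five-concentration, 48-hour dose response in 96-well plates underlies each endpoint, interpolated linearly between surrounding concentrations. GI50 marks 50% less growth. Definition used: TGI = concentration required for complete inhibition of growth.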

What was measured:
Test in all cases: DTP human tumour cell line panel, 48 h
OVCAR-8 ovarian = tested on: OVCAR-8 ovarian
DLD-1 colon = tested on: DLD-1 colon
U251 CNS = tested on: U251 CNS
LXFL 529 NSCLC = tested on: LXFL 529 NSCLC
SK-MEL-5 melanoma = tested on: SK-MEL-5 melanoma
HOP-92 NSCLC = tested on: HOP-92 NSCLC
HT29 colon = tested on: HT29 colon
LOX IMVI melanoma = tested on: LOX IMVI melanoma
MDA-MB-231 breast = tested on: MDA-MB-231 breast
DU-145 prostate = tested on: DU-145 prostate

Row | Structure (SMILES) | TGI (OVCAR-8 ovarian) | TGI (DLD-1 colon) | TGI (U251 CNS) | TGI (LXFL 529 NSCLC) | TGI (SK-MEL-5 melanoma) | TGI (HOP-92 NSCLC) | TGI (HT29 colon) | TGI (LOX IMVI melanoma) | GI50 (LOX IMVI melanoma) | GI50 (OVCAR-8 ovarian) | GI50 (DLD-1 colon) | GI50 (HOP-92 NSCLC) | GI50 (U251 CNS) | GI50 (HT29 colon) | GI50 (LXFL 529 NSCLC) | GI50 (SK-MEL-5 melanoma) | GI50 (MDA-MB-231 breast) | TGI (MDA-MB-231 breast) | GI50 (DU-145 prostate) | TGI (DU-145 prostate)
1 | C1CCOC2(CCC3(CC2)OCCCCO3)OC1 | > 100 µM | > 100 µM | > 100 µM | > 100 µM | > 100 µM | – | – | – | – | – | – | – | – | – | – | – | – | – | – | –
2 | C=C1CCC2[C@@H](CCC3[C@]2(C)CCC[C@]3(C)C(=O)OC)C1CCO (stereo partly specified) | 37.7 µM | 46.8 µM | 26.4 µM | 21 µM | 17.5 µM | 20.1 µM | 17.8 µM | – | – | – | – | – | – | – | – | – | – | – | – | –
3 | C=C1CCc2occ(C)c2C2C1C1=C(CC(C)C1=O)C1OC12C (stereo unspecified) | > 100 µM | > 100 µM | > 100 µM | > 100 µM | > 100 µM | > 100 µM | > 100 µM | > 100 µM | – | – | – | – | – | – | – | – | – | – | – | –
4 | C=CCNC(=O)NCCCC(NC(C)=O)C(=O)NCc1ccccc1 (stereo unspecified) | > 100 µM | – | > 100 µM | > 100 µM | > 100 µM | > 100 µM | > 100 µM | > 100 µM | – | – | – | – | – | – | – | – | – | – | – | –
5 | CCCC(Sc1ccccc1)P(=O)(c1ccccc1)c1ccccc1 (stereo unspecified) | > 100 µM | > 100 µM | > 100 µM | – | 87.2 µM | 60.1 µM | – | > 100 µM | – | – | – | – | – | – | – | – | – | – | – | –
6 | N.N.NCCCCCCN.O=C([O-])CC(=O)[O-].O=C([O-])CC(=O)[O-].[Pt+4].[Pt+4] | > 100 µM | > 100 µM | > 100 µM | > 100 µM | > 100 µM | > 100 µM | > 100 µM | > 100 µM | > 100 µM | > 100 µM | > 100 µM | > 100 µM | 47.7 µM | 62.5 µM | > 100 µM | > 100 µM | – | – | – | –
7 | C=CC1C(OC2OC(CO)C(O)C(O)C2O)OC=C(C(=O)OC)C1CC=O (stereo unspecified) | – | > 100 µM | > 100 µM | > 100 µM | > 100 µM | – | – | > 100 µM | – | – | – | – | – | – | – | – | – | – | – | –
8 | CCC1CCc2c(OC)ccc(OCC(=O)O)c2C1=O (stereo unspecified) | > 100 µM | > 100 µM | > 100 µM | > 100 µM | > 100 µM | – | – | > 100 µM | – | – | – | – | – | – | – | – | – | – | – | –
9 | CC(=O)NC1CC2Oc3ccc(C)cc3C(C)(O2)C1O (stereo unspecified) | > 100 µM | > 100 µM | > 100 µM | – | – | – | > 100 µM | > 100 µM | – | – | – | – | – | – | – | – | – | – | – | –
10 | CC1CCC(C(C)C)C(O[C@@H]2OC(=O)C[C@@H]2Sc2ccccc2)C1 (stereo partly specified) | 45.3 µM | > 100 µM | – | 46.1 µM | 30.3 µM | – | 34.3 µM | 26.3 µM | – | – | – | – | – | – | – | – | – | – | – | –
11 | COc1cc(C)c(O)c(C(=O)O)c1 | > 100 µM | > 100 µM | > 100 µM | > 100 µM | > 100 µM | – | > 100 µM | > 100 µM | – | – | – | – | – | – | – | – | – | – | – | –
12 | CC(=O)Nc1ccc(/C=C/C(=O)c2sc(-c3nc(C)c(C(=O)/C=C/c4ccc(NC(C)=O)cc4)s3)nc2C)cc1 | > 100 µM | > 100 µM | > 100 µM | > 100 µM | – | – | > 100 µM | > 100 µM | – | – | – | – | – | – | – | – | – | – | – | –
13 | CCOC(=O)c1nc(-c2ccccc2)oc1OCC | > 100 µM | > 100 µM | > 100 µM | > 100 µM | > 100 µM | – | > 100 µM | > 100 µM | – | – | – | – | – | – | – | – | – | – | – | –
14 | CCNCCNc1cc(C2CCCCC2)c(C#N)c2nc3ccccc3n12 | 7.99 µM | – | 3.42 µM | – | 3.1 µM | 4.08 µM | 3.82 µM | 2.08 µM | 0.568 µM | 2.93 µM | – | 2.28 µM | 1.48 µM | 1.73 µM | – | 1.71 µM | 1.95 µM | 3.62 µM | 2.37 µM | 5.79 µM
15 | CCCOC(=O)CCn1c(SC)nc2[nH]cc(-c3ccccc3)c2c1=O | > 100 µM | – | 87.4 µM | – | 35.1 µM | 40.4 µM | 61.6 µM | 30.9 µM | 10.9 µM | 20.5 µM | – | 3.64 µM | 12.8 µM | 15.5 µM | – | 15.9 µM | 38.3 µM | > 100 µM | 27.8 µM | > 100 µM
16 | Nc1cc(N)c2nc(-c3ccccc3)c(NCc3ccc(F)cc3)nc2c1 | 6.07 µM | – | 3.16 µM | – | 3.61 µM | 6.91 µM | 12.5 µM | 3.17 µM | 1.52 µM | 2.66 µM | – | 3.32 µM | 1.6 µM | 3.19 µM | – | 1.88 µM | 2.13 µM | 5.08 µM | 1.5 µM | 3.81 µM
17 | CCCCCCCOc1c(OC)cc(C2CC(=O)Nc3c2c(C)nn3-c2nc3ccccc3[nH]2)cc1OC (stereo unspecified) | > 100 µM | – | > 100 µM | – | 3.78 µM | 7.68 µM | > 100 µM | 4.51 µM | 2.12 µM | 4.28 µM | – | 2.34 µM | 3.72 µM | 4.06 µM | – | 1.93 µM | 1.98 µM | 4.12 µM | 4.66 µM | > 100 µM
18 | CCN(CC)c1ccc(C(=N)c2ccc(N(C)C)cc2)cc1 | 6.51 µM | – | 7.57 µM | – | 1.94 µM | 4.22 µM | 4.02 µM | 7.22 µM | 1.21 µM | 1.94 µM | – | 1.05 µM | 1.33 µM | 0.0399 µM | – | 0.159 µM | 1.33 µM | 3.87 µM | 1.7 µM | 7.18 µM
19 | O=C(CCCSc1nc(-c2ccccc2)cc(-c2ccc(Cl)cc2)n1)NO | 16.2 µM | – | 12.7 µM | – | 5.45 µM | 8.26 µM | 13.2 µM | 1.87 µM | 0.414 µM | 0.596 µM | – | 2.29 µM | 1.66 µM | 2.47 µM | – | 2.26 µM | 2.12 µM | 11.6 µM | 1.39 µM | 8.94 µM
20 | Nc1n[nH]c2ccc([C@@H]3Nc4ccc5[nH]ncc5c4[C@H]4C5C=CC(C5)[C@@H]34)cc12 (stereo partly specified) | > 89.5 µM | – | 22.2 µM | – | 1.58 µM | 10.7 µM | 28.7 µM | 11.8 µM | 0.443 µM | 0.563 µM | – | 1.46 µM | 0.433 µM | 0.357 µM | – | 0.338 µM | 0.694 µM | 12.4 µM | 0.445 µM | > 30.8 µM
21 | O=C(CCc1cc(-c2ccccc2)nc(=S)[nH]1)Nc1ccccc1[N+](=O)[O-] | > 100 µM | – | > 100 µM | > 100 µM | > 100 µM | > 100 µM | > 100 µM | > 100 µM | – | – | – | – | – | – | – | – | – | – | – | –
22 | CS(=O)(=O)Nc1ccc(N=Cc2c(O)[nH]c3ccccc23)cc1 | > 25 µM | – | > 25 µM | – | > 25 µM | > 25 µM | > 25 µM | > 25 µM | > 25 µM | > 25 µM | – | > 25 µM | > 25 µM | > 25 µM | – | > 25 µM | > 25 µM | > 25 µM | > 25 µM | > 25 µM
